Measured values published in patent US20240174634A1, “Aldehyde Dehydrogenase Inhibitors and Their Therapeutic Use” (priority 2020, published 2024).
pIC50: −log10 of the molar value.

Assays:
ALDH1A2 = biological target: T1, ALDH1A2 (Homo sapiens, UniProt O94788); experiment: Selectivity biochemical assay, NAD(P)H-Glo Detection System
T1 construct: His-tag; made in house; host or cells: E. coli Rosetta (DE3)
T1 sequence (O94788 1-518): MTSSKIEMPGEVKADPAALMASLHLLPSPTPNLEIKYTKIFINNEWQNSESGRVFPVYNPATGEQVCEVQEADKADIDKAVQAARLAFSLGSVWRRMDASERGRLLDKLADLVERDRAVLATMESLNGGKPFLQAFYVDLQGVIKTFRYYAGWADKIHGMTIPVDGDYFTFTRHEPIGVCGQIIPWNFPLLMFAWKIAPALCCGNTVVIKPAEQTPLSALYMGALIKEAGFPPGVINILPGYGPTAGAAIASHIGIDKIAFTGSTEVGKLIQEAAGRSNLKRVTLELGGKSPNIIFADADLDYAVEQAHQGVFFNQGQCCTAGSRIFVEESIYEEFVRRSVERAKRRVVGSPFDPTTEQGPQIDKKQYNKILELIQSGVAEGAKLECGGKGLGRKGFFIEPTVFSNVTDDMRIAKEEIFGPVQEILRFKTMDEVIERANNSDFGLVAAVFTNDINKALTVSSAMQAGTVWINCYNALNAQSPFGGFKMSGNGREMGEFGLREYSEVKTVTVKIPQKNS
Excerpt: Cloning: Open reading frames corresponding to the protein coding sequences of full length human ALDH1A1 (Uniprot ID P00352), ALDH1A2 (094788) and ALDH1A3 (P47895) were polymerase chain reaction (PCR) amplified from human cDNA and inserted into the multi-cloning sites of the commercially available (Novagen) E. coli expression vectors pET47b (ALDH1A1, EcoRI restriction site; ALDH1A2, BamHI and EcoRI sites) or pET28a (ALDH1A3, NdeI and BamHI sites), using standard molecular genetic techniques. Recombinant DNA products were sequence verified prior to use in expression studies.
Expression: Expression constructs were transformed into the E. coli strain Rosetta (DE3) (Merck) and individual colonies used to inoculate 10 mL lysogen broth (LB) medium supplemented with kanamycin and chloramphenicol at 50 μg/mL and 34 μg/mL, respectively. Cultures were grown to saturation overnight at 37° C., prior to being used to sub-inoculate fresh 1 L LB medium cultures (plus antibiotics, as before). 1 L cultures were grown at 37° C., 200 rpm, throughout the day until the optical density at 600 nm (OD600) reached ˜0.8, at which point growth temperature was reduced to 18° C. and 1 mM isopropyl β-d-1-thiogalacto pyranoside (IPTG) added to induce protein expression.
Cultures were left overnight (at least 16 h) under these conditions and the following day harvested by centrifugation (4000 G, 10 minutes). Culture supernatant was discarded and cell pellets stored at −80° C. until further processing.
Purification: Cell pellets were thawed on ice, re-suspended in Ni Affinity Buffer A (20 mM HEPES pH 7.5, 300 mM NaCl, 20 mM imidazole, 1 mM tris(2-carboxyethyl)phosphine (TCEP)) with protease inhibitors (cOmplete Ultra protease inhibitor, Roche), and lysed by sonication. Lysates were clarified by centrifugation at 18,000 G, 4° C., for 40 minutes, and loaded directly onto a pre-equilibrated (Buffer A) 5 mL HisTrap Fast Flow column (GE Healthcare) by way of an AKTA Fast Protein Liquid Chromatography (FPLC) system. The column was sequentially treated with 6 column volumes (CV) 100% Buffer A, 8 CV of 90% Buffer A:10% Buffer B (20 mM 4-(2-hydroxyethyl)-1-piperazineethanesulfonic acid (HEPES) pH 7.5, 300 mM NaCl, 500 mM imidazole, 1 mM TCEP) and finally a linear gradient from 10-70% Buffer B over 8 CV to elute recombinant His-tagged protein. Relevant fractions (as measured by 280 nm absorbance) collected during elution were pooled and subjected to further purification by size exclusion chromatography (Superdex 200 26/600, GE Healthcare, running buffer 20 mM 2-(carbamoylmethylamino)ethanesulfonic acid (ACES) pH 7.5, 1 mM TCEP). Relevant fractions from this step were pooled, aliquoted, and stored at −80° C. until required for compound profiling assays.
Materials: ALDH2 was purchased from Abnova. Tris(hydroxymethyl)aminomethane (Tris) was purchased from MP Biomedicals. TCEP, ethylenediaminetetraacetic acid (EDTA), propionaldehyde, DMSO and Tween-20 were purchased from Sigma. Nicotinamide adenine dinucleotide (NAD) was obtained from Abcam. The NAD(P)H-Glo™ Detection System was purchased from Promega. White, non-binding surface, 384 well plates were supplied by Corning (#3574).
Method: Inhibition of ALDH1A3 was assessed using the NAD(P)H-Glo™ Detection System (Cat. No. G9062) from Promega. This assay detects the production of NADH from NAD by ALDH1A3 via the coupled enzymatic conversion of a proluciferin reductase substrate to generate a luminescent signal. Inhibition of ALDH1A3 by small molecule inhibitors will result in reduction or abrogation of luminescence signal increase above background. Inhibition of ALDH1A1, ALDH1A2 and ALDH2 (selectivity assays) were assessed using the same assay.
Compounds were dosed into Corning 384 well assay plates using an Echo acoustic dispenser to give 10 point curves in a 3-fold dilution series. Compounds were dispensed from a 20 mM DMSO stock and initially screened at a top concentration of 20 μM (ALDH1A3) or 250 μM (ALDH1A1, ALDH1A2 & ALDH2). […]

ALDH1A3 = biological target: T2, ALDH1A3 (Homo sapiens, UniProt P47895); experiment: Primary biochemical assay, NAD(P)H-Glo Detection System; set-up: His-tag; made in house; host or cells: E. coli Rosetta (DE3); settings: 30 min pre-incubation, propionaldehyde and NAD at Km
T2 sequence (P47895 1-512): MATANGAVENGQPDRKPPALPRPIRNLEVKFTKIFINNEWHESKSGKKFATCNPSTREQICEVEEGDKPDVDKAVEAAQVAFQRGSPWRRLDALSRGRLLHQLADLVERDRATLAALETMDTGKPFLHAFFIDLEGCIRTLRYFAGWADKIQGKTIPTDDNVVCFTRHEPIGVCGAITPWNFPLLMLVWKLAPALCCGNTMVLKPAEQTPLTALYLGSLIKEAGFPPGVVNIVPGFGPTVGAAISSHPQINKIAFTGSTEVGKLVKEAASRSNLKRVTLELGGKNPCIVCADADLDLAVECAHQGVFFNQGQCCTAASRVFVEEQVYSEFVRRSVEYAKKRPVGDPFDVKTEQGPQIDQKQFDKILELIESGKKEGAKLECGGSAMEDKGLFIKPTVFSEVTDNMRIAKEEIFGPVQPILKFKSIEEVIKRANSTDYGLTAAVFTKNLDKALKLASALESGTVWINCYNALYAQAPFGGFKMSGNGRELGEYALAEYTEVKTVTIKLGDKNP
How it was run: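 Recombinant full-length His-tagged human enzymes expressed in E. coli were pre-incubated 30 min at room temperature with compound (10-point, 3-fold series; top 20 μM for ALDH1A3, 250 μM for ALDH1A1/1A2). Propionaldehyde and NAD were then added at Km; NADH was read by NAD(P)H-Glo luminescence. Buffer: Tris (pH 7.6 for 1A1/1A2, 9.0 for 1A3), 1 mM TCEP, 0.01% Tween-20.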

SMILES: O=C1CCc2cc(NC(=O)c3sccc3-c3cccc(F)c3)ccc2N1 [ALDHI-1022, 3-(3-fluorophenyl)-N-(2-oxo-3,4-dihydro-1H-quinolin-6-yl)thiophene-2-carboxamide]
- pIC50 (ALDH1A2): 5.00 to 6.00
- pIC50 (ALDH1A3): 6.00 to 7.00

SMILES: O=c1ccc2cc(OCCN3CCCC3c3cccc(F)c3)ccc2[nH]1 (centres unmarked) [ALDHI-2022, 6-[2-[2-(3-fluorophenyl)pyrrolidin-1-yl]ethoxy]-1H-quinolin-2-one]
- pIC50 (ALDH1A2): 5.00 to 6.00
- pIC50 (ALDH1A3): > 7.00

SMILES: CN(CCOc1ccc2c(c1)CCC(=O)N2)Cc1cccc(F)c1 [ALDHI-3001, 6-[2-[(3-fluorophenyl)methyl-methyl-amino]ethoxy]-3,4-dihydro-1H-quinolin-2-one]
- pIC50 (ALDH1A2): 5.00 to 6.00
- pIC50 (ALDH1A3): 6.00 to 7.00

SMILES: O=C1CCc2cc(OCCN3CCC3c3cccc(F)c3)ccc2N1 (centres unmarked) [ALDHI-2021, 6-[2-[2-(3-fluorophenyl)azetidin-1-yl]ethoxy]-3,4-dihydro-1H-quinolin-2-one]
- pIC50 (ALDH1A2): 5.00 to 6.00
- pIC50 (ALDH1A3): 6.00 to 7.00

SMILES: O=C1CCc2cc(OCCn3nccc3-c3cccc(F)c3)ccc2N1 [ALDHI-2023, 6-[2-[5-(3-fluorophenyl)pyrazol-1-yl]ethoxy]-3,4-dihydro-1H-quinolin-2-one]
- pIC50 (ALDH1A2): > 7.00
- pIC50 (ALDH1A3): > 7.00

SMILES: O=C1CCc2cc(NC(=O)c3ccccc3-c3cccc(F)c3)ccc2N1 [ALDHI-1007, 3′-fluoro-N-(2-oxo-1,2,3,4-tetrahydroquinolin-6-yl)-[1,1′-biphenyl]-2-carboxamide]
- pIC50 (ALDH1A2): 5.00 to 6.00
- pIC50 (ALDH1A3): 5.00 to 6.00

SMILES: O=C1CCc2cc(OCCN(CCO)Cc3cccc(F)c3)ccc2N1 [ALDHI-3002, 6-[2-[(3-fluorophenyl)methyl-(2-hydroxyethyl)amino]ethoxy]-3,4-dihydro-1H-quinolin-2-one]
- pIC50 (ALDH1A2): 6.00 to 7.00
- pIC50 (ALDH1A3): > 7.00

SMILES: O=C1CCc2cc(OCCN3CCC[C@@H]3c3cccc(F)c3)ccc2N1 [ALDHI-2007, 6-[2-[(2R)-2-(3-fluorophenyl)pyrrolidin-1-yl]ethoxy]-3,4-dihydro-1H-quinolin-2-one]
- pIC50 (ALDH1A2): 6.00 to 7.00
- pIC50 (ALDH1A3): > 7.00

SMILES: CN(C)c1nc(-c2cccc(F)c2)c(C(=O)Nc2ccc3c(c2)CCC(=O)N3)s1 [ALDHI-1002, 2-(dimethylamino)-4-(3-fluorophenyl)-N-(2-oxo-3,4-dihydro-1H-quinolin-6-yl)thiazole-5-carboxamide]
- pIC50 (ALDH1A2): 5.00 to 6.00
- pIC50 (ALDH1A3): > 7.00

SMILES: CCn1cc(C2CCCN2CCOc2ccc3c(c2)CCC(=O)N3)cn1 (centres unmarked) [ALDHI-2016, 6-[2-[2-(1-ethylpyrazol-4-yl)pyrrolidin-1-yl]ethoxy]-3,4-dihydro-1H-quinolin-2-one]
- pIC50 (ALDH1A2): ≤ 4.00
- pIC50 (ALDH1A3): 6.00 to 7.00

SMILES: CC1(c2cccc(F)c2)CCCN1CCOc1ccc2c(c1)CCC(=O)N2 (centres unmarked) [ALDHI-2037, 6-[2-[2-(3-fluorophenyl)-2-methyl-pyrrolidin-1-yl]ethoxy]-3,4-dihydro-1H-quinolin-2-one]
- pIC50 (ALDH1A2): 6.00 to 7.00
- pIC50 (ALDH1A3): > 7.00

SMILES: CC1(C)Oc2cc(OCCN3CCCC3c3cccc(F)c3)ccc2NC1=O (centres unmarked) [ALDHI-2043, 7-[2-[2-(3-fluorophenyl)pyrrolidin-1-yl]ethoxy]-2,2-dimethyl-4H-1,4-benzoxazin-3-one]
- pIC50 (ALDH1A2): 5.00 to 6.00
- pIC50 (ALDH1A3): 6.00 to 7.00

SMILES: O=C1CCc2cc(OCCN3CCCC3c3ccncc3)ccc2N1 (centres unmarked) [ALDHI-2004, 6-[2-[2-(4-pyridyl)pyrrolidin-1-yl]ethoxy]-3,4-dihydro-1H-quinolin-2-one]
- pIC50 (ALDH1A2): 4.00 to 5.00
- pIC50 (ALDH1A3): 6.00 to 7.00

SMILES: O=C1CCc2cc(NC(=O)c3scnc3-c3cccc(F)c3)ccc2N1 [ALDHI-1003, 4-(3-fluorophenyl)-N-(2-oxo-3,4-dihydro-1H-quinolin-6-yl)thiazole-5-carboxamide]
- pIC50 (ALDH1A2): 5.00 to 6.00
- pIC50 (ALDH1A3): > 7.00

SMILES: CCN(CC)CCN(CCOc1ccc2c(c1)CCC(=O)N2)Cc1ccccc1 [ALDHI-3004, 6-[2-[benzyl-[2-(diethylamino)ethyl]amino]ethoxy]-3,4-dihydro-1H-quinolin-2-one]
- pIC50 (ALDH1A2): 5.00 to 6.00
- pIC50 (ALDH1A3): 6.00 to 7.00

SMILES: CN(CCOc1ccc2c(c1)CCC(=O)N2)Cc1cccnc1 [ALDHI-3010, 6-[2-[methyl(3-pyridylmethyl)amino]ethoxy]-3,4-dihydro-1H-quinolin-2-one]
- pIC50 (ALDH1A2): 4.00 to 5.00
- pIC50 (ALDH1A3): 6.00 to 7.00
